Data on five molecules can be found in ChEMBL document CHEMBL1156746, “New small molecule inhibitors of hepatitis C virus” (Bioorg Med Chem Lett, 2009).

The nature of data set [1]: Cytotoxicity against human Huh7.5 cells. The format is cell-based, Huh-7.
The subject of data set [2] is Hepatitis C virus. Kind of data set: Antiviral activity against HCV2a J6/JFH1 infected in Huh7-5 cells at late T2 stage assessed as inhibition of core protein dimerization by RT PCR. In kind it is functional, organism-based, Hepacivirus hominis. The following applies: subtype 2a J6/JFH1, Huh7.5.
The subject of data set [3] is Hepatitis C virus. Kind of data set: Antiviral activity against HCV2a J6/JFH1 infected in Huh7-5 cells at early T1 stage assessed as inhibition of core protein dimerization by RT PCR. In kind it is functional, organism-based, Hepacivirus hominis. The following applies: subtype 2a J6/JFH1, Huh7.5.
Data set [4] relates to Hepatitis C virus. Briefly: Antiviral activity against HCV2a J6/JFH1 infected in Huh7-5 cells assessed as inhibition of core protein dimerization by RT PCR. The format is functional, organism-based, Hepacivirus hominis, subtype 2a J6/JFH1.
The mark [5] stands for this setting: Hepatitis C virus, subtype 2a J6/JFH1, Huh7.5, read-out: IC50.

Usually CC50 stands for the concentration giving 50% cytotoxicity. What is called EC50 is the concentration at which the effect is half-maximal. A word on the IC50: it is the concentration that inhibits the measured activity by half. In data set [1] (Huh7.5 cells), `COC(=O)C1=C(C(=O)OC)C2N(C)c3ccc(OC)cc3[C@@]23C[C@@H](C(=O)OC)N(C(=O)CC(C)C)C3=N1` (mixture of isomers) came in with a CC50 of over 320 µM. The half-maximal effective concentration (EC50) with Hepatitis C virus [2] was 22.2 µM; in the data set with Hepatitis C virus [3], 14.8 µM. Further, in the data set with Hepatitis C virus [4] (setting [5]), the 50% inhibitory concentration (IC50) stood at 9.3 µM.

In data set [1] (huh-7), `COc1ccc2c(O[C@@H]3C[C@H]4C(=O)N[C@]5(C(=O)O)C[C@H]5/C=C\CCCCC[C@H](NC(=O)OC5CCCC5)C(=O)N4C3)cc(-c3csc(NC(C)C)n3)nc2c1` [CILUPREVIR] gave a half-maximal cytotoxic concentration (CC50) of 5.3 µM. For the same molecule, the EC50 came out at 0.071 µM in the data set with Hepatitis C virus [2] and 0.072 µM in the data set on Hepatitis C virus [3]. For the same molecule, the IC50 entry with Hepatitis C virus [4] (huh7-5) is “Not Active”.

Molecule `C=CCN1c2ccc(OC)cc2[C@]23CCC(=O)N(Cc4ccccc4)C2=NC(C(=O)OC)=C(C(=O)OC)C13` (mixture of isomers) showed a cytotoxic concentration (CC50) in data set [1] (Huh7.5 cells) of 127 µM. Moreover, the EC50 in the data set with Hepatitis C virus [2] worked out at 3.2 µM; with Hepatitis C virus [3] it was 2.3 µM. In addition, in the data set on Hepatitis C virus [4] (setting [5]), the IC50 turned out to be 1.4 µM.

For the molecule `CC#CCN1c2ccc(OC)cc2[C@]23CCC(=O)N(CCOC)C2=NC(C(=O)OC)=C(C(=O)OC)C13` (mixture of isomers), the half-maximal cytotoxic concentration (CC50) in data set [1] (Huh7.5 cells) was over 320 µM. Moreover, the half-maximal effective concentration (EC50) is 0.7 µM in the data set with Hepatitis C virus [2] and 4.9 µM in the data set with Hepatitis C virus [3]. Also, in the data set with Hepatitis C virus [4] (setting [5]), the half-maximal inhibitory concentration (IC50) was 2 µM.

For the molecule `C=CCN1c2ccc(OC)cc2[C@]23CCC(=O)N(Cc4cc(OC)c(OC)c(OC)c4)C2=NC(C(=O)OC)=C(C(=O)OC)C13` (mixture of isomers), the CC50 in data set [1] (Huh7.5 cells) was found to be 5.3 µM. In addition, the results for the concentration for a half-maximal effect (EC50) with Hepatitis C virus [2] and in the data set on Hepatitis C virus [3] were 3 µM and 3.8 µM, respectively. In addition, the IC50 in the data set on Hepatitis C virus [4] (setting [5]) came out at 2 µM.
